Legend:
Assay type in all cases: cell-based
[1] = test system: HepG2; assay: MTT assay, human cancer cells HepG2; conditions: for IC50 of human cancer cells by MTT assay: HepG2, liver cancer, HAP agents particle diameter 0.1 μm or less; for Platinum content calculated from IC50 of human cancer cells by MTT assay: HepG2, IC50 converted to platinum concentration
Method: (§1) Effect of platinum tetrachloride/hydroxyapatite (PtCl4/HAP) and hexachloroplatinate/hydroxyapatite (H2PtCl6/HAP) against human cancer cells (MTT assay)
(§2) According to “in vitro toxicity test using MTT”, which is an ordinary test method, MTT assay was performed for PtCl4/HAP (particle diameter 0.1 μm or less), and H2PtCl6/HAP (particle diameter 0.1 μm or less) by using 19 types of human cancer cells. PtCl4/HAP and H2PtCl6/HAP were used by adjusting the final dispersion concentration to 1.0% in a dispersion liquid each containing 10% platinum as a theoretical value. For comparison, MTT assay was performed for PtCl4 and CDDP. PtCl4 was dissolved at an adequate dose, and then used after serial dilution with PBS (−). For CDDP, injection liquid from Malco was used.

[2] = test system: fibroblasts during resting stage; assay: Toxicity test during resting stage (MTT assay); conditions: rat fibroblasts, confluent, 48 hours; for IC50 in the toxicity test during resting stage: HAP agents particle diameter 0.1 μm or less
Excerpt: A male mature rat was deeply anesthetized with ether, and disinfected by wiping carefully its tail with alcohol. The tail end part was cut by several centimeters, and the skin was removed from coccyx. Tendon was attached to the coccyx, and by culturing the same, fibroblasts can be recovered. Coccyx part was further cut finely with a sterilized pair of scissors, and adhered on a sterilized plastic plate with the cut surface down. After resting the plate for a while, DMEM supplemented with 10% FBS was added thereto. In approximately one week, fibroblasts germinated from the coccyx part, and proliferated in the plate. The fibroblasts collected from rat tail end were used for the following experiment.
Rat fibroblasts during proliferating stage were inoculated 2 times more than usual to a 96-well plate, that 100 μl of cell suspension at 2×10^4 cells/ml. Subsequently, it was cultured for 72 hours, in order to make cells in a confluent condition. After confirming with an inverted microscope that cells were in a complete confluent condition in each well, medium of each well was changed. Then, serially diluted test samples were added to the wells by aliquot of 10 μl, by the above-mentioned method. Culture was continued 48 hours after the addition, and subsequently, MTT assay was performed for PtCl4/HAP (particle diameter 0.1 μm or less), and H2PtCl6/HAP (particle diameter 0.1 μm or less), with similar procedures to those described in the above “toxicity test of PtCl4/HAP and H2PtCl6/HAP during proliferation stage”.

[3] = test system: YES2; assay: MTT assay, human cancer cells YES2; conditions: for IC50 of human cancer cells by MTT assay: YES2, esophageal cancer, HAP agents particle diameter 0.1 μm or less; for Platinum content calculated from IC50 of human cancer cells by MTT assay: YES2, IC50 converted to platinum concentration
Method: as §1, §2

[4] = test system: LoVo; assay: MTT assay, human cancer cells LoVo; conditions: for Platinum content calculated from IC50 of human cancer cells by MTT assay: IC50 converted to platinum concentration; for IC50 of human cancer cells by MTT assay: colon cancer, HAP agents particle diameter 0.1 μm or less
Method: as §1, §2

[5] = test system: YES4; assay: MTT assay, human cancer cells YES4; conditions: for IC50 of human cancer cells by MTT assay: YES4, esophageal cancer, HAP agents particle diameter 0.1 μm or less; for Platinum content calculated from IC50 of human cancer cells by MTT assay: YES4, IC50 converted to platinum concentration
Method: as §1, §2

[6] = test system: human lung cancer cell Lu99; assay: MTT assay, human lung cancer cell Lu99; conditions: for IC50 of human cancer cells by MTT assay: Lu99, lung cancer, HAP agents particle diameter 0.1 μm or less (Table 1); for Platinum content calculated from IC50 of human cancer cells by MTT assay: Lu99, IC50 converted to platinum concentration (Table 2)
Method: as §1, §2

[7] = test system: KB; assay: MTT assay, human cancer cells KB; conditions: for Platinum content calculated from IC50 of human cancer cells by MTT assay: IC50 converted to platinum concentration; for IC50 of human cancer cells by MTT assay: oral cancer, HAP agents particle diameter 0.1 μm or less
Method: as §1, §2

[8] = test system: Kato-III; assay: MTT assay, human cancer cells Kato-III; conditions: for Platinum content calculated from IC50 of human cancer cells by MTT assay: KATO-III, IC50 converted to platinum concentration; for IC50 of human cancer cells by MTT assay: Kato-III, gastric cancer, HAP agents particle diameter 0.1 μm or less
Method: as §1, §2

[9] = test system: AZ521; assay: MTT assay, human cancer cells AZ521; conditions: for IC50 of human cancer cells by MTT assay: AZ521, gastric cancer, HAP agents particle diameter 0.1 μm or less; for Platinum content calculated from IC50 of human cancer cells by MTT assay: AZ521, IC50 converted to platinum concentration
Method: as §1, §2

[10] = test system: SiHa; assay: MTT assay, human cancer cells SiHa; conditions: for Platinum content calculated from IC50 of human cancer cells by MTT assay: IC50 converted to platinum concentration; for IC50 of human cancer cells by MTT assay: cervical cancer, HAP agents particle diameter 0.1 μm or less
Method: as §1, §2

| Compound | IC50 of human cancer cells by MTT assay [1] | Platinum content calculated from IC50 of human cancer cells by MTT assay [1] | Net Pt: platinum content wherein IC50 is converted to platinum concentration, resting stage [2] | IC50 in the toxicity test during resting stage [2] | IC50 of human cancer cells by MTT assay [3] | Platinum content calculated from IC50 of human cancer cells by MTT assay [3] | Platinum content calculated from IC50 of human cancer cells by MTT assay [4] | IC50 of human cancer cells by MTT assay [4] | IC50 of human cancer cells by MTT assay [5] | Platinum content calculated from IC50 of human cancer cells by MTT assay [5] | IC50 of human cancer cells by MTT assay [6] | Platinum content calculated from IC50 of human cancer cells by MTT assay [6] | Platinum content calculated from IC50 of human cancer cells by MTT assay [7] | IC50 of human cancer cells by MTT assay [7] | Platinum content calculated from IC50 of human cancer cells by MTT assay [8] | IC50 of human cancer cells by MTT assay [8] | IC50 of human cancer cells by MTT assay [9] | Platinum content calculated from IC50 of human cancer cells by MTT assay [9] | Platinum content calculated from IC50 of human cancer cells by MTT assay [10] | IC50 of human cancer cells by MTT assay [10] |
| --- | --- | --- | --- | --- | --- | --- | --- | --- | --- | --- | --- | --- | --- | --- | --- | --- | --- | --- | --- | --- |
| [NH2][Pt]([NH2])([Cl])[Cl] [CDDP, cisplatin] | 5.0 ppm | 5.0 ppm | 1.9 ppm | 2.9 ppm | 1.7 ppm | 1.1 ppm | 10.3 ppm | 15.8 ppm | 1.3 ppm | 0.8 ppm | 0.8 ppm | 0.8 ppm | 4.1 ppm | 6.3 ppm | 1.8 ppm | 2.7 ppm | 1.0 ppm | 0.7 ppm | 9.8 ppm | 15.1 ppm |
| [Cl][Pt]([Cl])([Cl])[Cl] [PtCl4, platinum tetrachloride] | 6.2 ppm | 6.2 ppm | 13.8 ppm | 23.8 ppm | 35.8 ppm | 20.7 ppm | 3.8 ppm | 6.6 ppm | 14.6 ppm | 8.5 ppm | 1.1 ppm | 1.1 ppm | 8.7 ppm | 15.0 ppm | 3.4 ppm | 5.8 ppm | 14.6 ppm | 8.4 ppm | 5.0 ppm | 8.7 ppm |
